From paper PMC11909324 (Journal of the Science of Food and Agriculture, 2024)
Several values for one entry are separate records, joined by “and”; a condition that tells them apart may be missing. Identical values can stand only once. Like-named read-outs stand apart in the source and are kept apart here.

Tests used:
[1] = biological target: T1, xanthine oxidase (XO) (Bos taurus, UniProt P80457); assay: Fluorescence quenching studies of polyphenol-XO complexes; assay type: binding, bovine; conditions: for Log K SV ± SEM (Stern–Volmer quenching constant): K SV in L mol^−1
T1 construct: XO (from bovine milk); purchased Merck (Darmstadt, Germany); host or cells: bovine milk (natural source)
T1 sequence (P80457 whole entry): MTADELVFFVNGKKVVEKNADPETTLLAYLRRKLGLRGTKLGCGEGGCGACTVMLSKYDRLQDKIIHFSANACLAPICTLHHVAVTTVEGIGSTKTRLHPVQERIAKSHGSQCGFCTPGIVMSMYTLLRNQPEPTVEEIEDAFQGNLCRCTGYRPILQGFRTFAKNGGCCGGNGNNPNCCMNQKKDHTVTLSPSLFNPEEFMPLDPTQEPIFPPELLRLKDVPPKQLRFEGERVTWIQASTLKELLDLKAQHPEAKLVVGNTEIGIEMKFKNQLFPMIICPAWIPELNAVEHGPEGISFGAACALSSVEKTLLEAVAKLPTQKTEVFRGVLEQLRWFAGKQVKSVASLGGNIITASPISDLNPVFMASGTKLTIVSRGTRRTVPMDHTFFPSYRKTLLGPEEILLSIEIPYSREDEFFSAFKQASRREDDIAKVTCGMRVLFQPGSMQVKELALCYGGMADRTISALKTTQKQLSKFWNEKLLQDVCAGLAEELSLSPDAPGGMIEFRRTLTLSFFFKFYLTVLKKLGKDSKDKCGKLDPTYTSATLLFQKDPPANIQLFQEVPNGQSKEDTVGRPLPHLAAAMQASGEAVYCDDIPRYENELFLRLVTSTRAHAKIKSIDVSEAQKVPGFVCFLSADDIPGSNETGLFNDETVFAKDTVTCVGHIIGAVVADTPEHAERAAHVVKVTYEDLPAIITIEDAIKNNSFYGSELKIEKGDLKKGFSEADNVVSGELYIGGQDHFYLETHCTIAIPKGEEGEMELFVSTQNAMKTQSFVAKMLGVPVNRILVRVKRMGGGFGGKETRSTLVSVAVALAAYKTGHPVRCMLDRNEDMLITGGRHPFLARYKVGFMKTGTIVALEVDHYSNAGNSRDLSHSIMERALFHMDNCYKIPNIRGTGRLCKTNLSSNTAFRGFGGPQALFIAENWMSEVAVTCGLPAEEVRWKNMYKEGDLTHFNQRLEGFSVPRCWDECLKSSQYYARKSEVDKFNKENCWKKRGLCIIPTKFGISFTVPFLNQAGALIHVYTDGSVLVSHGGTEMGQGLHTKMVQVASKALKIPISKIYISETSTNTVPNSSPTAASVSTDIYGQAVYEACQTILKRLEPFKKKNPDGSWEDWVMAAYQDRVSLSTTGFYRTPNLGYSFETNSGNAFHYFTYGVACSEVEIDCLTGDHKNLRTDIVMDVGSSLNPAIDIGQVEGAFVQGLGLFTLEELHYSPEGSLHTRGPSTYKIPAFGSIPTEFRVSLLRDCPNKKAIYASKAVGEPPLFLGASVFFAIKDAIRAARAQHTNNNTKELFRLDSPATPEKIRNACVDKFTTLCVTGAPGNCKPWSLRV
Experimental: Increasing concentrations of polyphenols (0, 2, 4, 6, 8 and 10 μmol L^−1) were added to a standard amount of XO (0.4 μmol L^−1) in sodium phosphate buffer (0.05 mol L^−1, pH 7.5). Then, the emission spectra of XO were recorded using 280 nm excitation wavelength. The inner‐filter effects of silymarin components/metabolites were corrected based on the following equation[39], [41], [42]: (1) Icor=Iobs×e^Aex+Aem/2 where I cor is the corrected and I obs is the observed emission intensity; while A ex and A em are the absorbance of polyphenols at the excitation and emission wavelengths applied, respectively. Polyphenol‐induced fluorescence quenching was evaluated at 335 nm. Stern–Volmer quenching constants (K SV; unit: L mol^−1) of polyphenol–XO complexes were determined using the graphical application of the Stern–Volmer equation[43], [44], [45]: (2) I0/I=1+KSV×Q where I 0 and I are the emission signals of XO without and with the polyphenols tested, respectively, and [Q] denotes the molar concentration (mol L^−1) of the quencher (polyphenols). The binding constants (K; unit: L mol^−1) of polyphenol–XO complexes were calculated applying the modified Stern–Volmer equation[43], [44], [45]: (3) I0/I0−I=1/fa×K×1/Q+1/fa where I 0, I and [Q] have the same meaning as in Eqn (2), and f a is the fraction of the accessible fluorophore.

[2] = biological target: T1, xanthine oxidase (XO); assay: XO assay with xanthine as substrate (uric acid formation, HPLC-UV); assay type: biochemical, bovine; conditions: for IC50: XO 0.0003 U mL^−1, 8 min, 37 °C, pH 7.5, read-out: IC50, xanthine oxidation; for IC50 / XO-catalyzed uric acid formation / decrease in uric acid production (inhibition of XO-catalyzed xanthine oxidation) / inhibition at 20 µM: xanthine 5 μmol L^−1; for XO-catalyzed uric acid formation: inhibitor 5 μmol L^−1; for α = IC50 of flavonoid/IC50 of positive control, xanthine oxidation: relative to APU; for decrease in uric acid production (inhibition of XO-catalyzed xanthine oxidation) / inhibition at 20 µM: inhibitor 20 μmol L^−1; for inhibition at 20 µM: read-out: decrease in uric acid production (inhibition of XO-catalyzed xanthine oxidation);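 as to all read-outs here: incubations in 0.05 mol L^−1 sodium phosphate buffer, with uric acid and remaining xanthine both quantified by HPLC-UV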
[3] = biological target: T1, xanthine oxidase (XO); assay: XO assay with 6MP as substrate (6-thiouric acid formation, HPLC-UV); assay type: biochemical, bovine; conditions: for IC50: XO 0.01 U mL^−1, 25 min, 37 °C, pH 7.5, read-out: IC50, 6MP oxidation; for fold stronger inhibition than APU, 6MP assay: based on IC50 values; for XO-catalyzed 6-thiouric acid formation: inhibitor 5 μmol L^−1; for α = IC50 of flavonoid/IC50 of positive control, 6MP oxidation: relative to APU; for lower decrease in metabolite formation in the 6MP assay than in the xanthine assay: difference between assays; for IC50(6MP)/IC50(xanthine): ratio of IC50 values with the two substrates;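 as to all read-outs here: incubation in 0.05 mol L^−1 sodium phosphate buffer, with 6MP and 6-thiouric acid quantified by HPLC-UV and conversion taken as the product share of substrate plus product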
[4] = biological target: T1, xanthine oxidase (XO); assay: Reversibility of XO inhibition (preincubation, increasing xanthine concentrations); assay type: biochemical, bovine; conditions: SBS 5 μmol L^−1, DSC and DSCS 0.5 μmol L^−1; 10 min preincubation; xanthine 5, 25, 50 μmol L^−1
Experimental: After 8 min incubation (700 rpm, 37 °C), the reaction was stopped, and the samples were treated in the same way as described in the previous paragraph.

[5] = in vivo; cited from earlier work
[6] = λex 280 nm, λem 335 nm, XO 0.4 μmol L^−1, pH 7.5
[7] = association constant K in L mol^−1, λex 280 nm, λem 335 nm, XO 0.4 μmol L^−1, pH 7.5
[8] = inhibitor 20 μmol L^−1, 6MP 5 μmol L^−1
[9] = association constant K in L mol^−1, λex 280 nm, λem 335 nm, XO 0.4 μmol L^−1, pH 7.5, read-out: Log K ± SEM (binding constant, modified Stern–Volmer) (converted)

Row | Compound | Log K SV ± SEM (Stern–Volmer quenching constant) [1, 6] | Log K ± SEM (binding constant, modified Stern–Volmer) [1, 7] | IC50 [2] | α = IC50 of flavonoid/IC50 of positive control, xanthine oxidation [2] | IC50 ([3]; 6MP 5 μmol L^−1) [nM] | α = IC50 of flavonoid/IC50 of positive control, 6MP oxidation [3] | decrease in uric acid production (inhibition of XO-catalyzed xanthine oxidation) [2] | decrease in 6-thiouric acid formation (inhibition of XO-catalyzed 6MP oxidation) [3, 8] | also measured
1 | COc1cc(C2Oc3c(O)cc(-c4oc5cc(O)cc(O)c5c(=O)c4O)cc3C2CO)ccc1OS(=O)(=O)O (mixture of isomers) [DSCS, 2,3‐dehydrosilychristin‐19‐O‐sulfate] | 4.68 ± 0.01 | 5.12 ± 0.03 | 80 nM | 0.31 | 210 | 0.05 | – | – | K (binding constant) of polyphenol–XO complex ([1]; fluorescence quenching): above 10^5 L mol^−1; XO-catalyzed uric acid formation [2]: almost completely abolished; fold stronger inhibition than APU, 6MP assay [3]: approximately 20 fold; XO-catalyzed 6-thiouric acid formation ([3]; 6MP 5 μmol L^−1): almost completely abolished; reversibility of the inhibitory action on XO [4]: reversible
2 | COc1cc(C2Oc3c(O)cc(C4Oc5cc(O)cc(O)c5C(=O)C4O)cc3C2CO)ccc1OS(=O)(=O)O (mixture of isomers) [SCS, silychristin‐19‐O‐sulfate] | 4.37 ± 0.03 | 4.66 ± 0.02 | – | – | – | – | weaker effect compared to its parent compound | weak to moderate inhibitors | lower decrease in metabolite formation in the 6MP assay than in the xanthine assay ([3]; inhibitor 20 μmol L^−1): ~20%
3 | Oc1ncnc2[nH]ncc12 [APU, allopurinol, reference compound] | – | – | – | – | – | – | almost completely abolished metabolite formation | marked decreases | –
4 | Oc1cc(O)c2c(c1)OC(c1ccc(O)c(O)c1)C(O)C2 (stereo not shown) [CAT, catechin] | – | – | – | – | – | – | did not cause significant changes | – | –
5 | COc1cc([C@@H]2Oc3c(O)cc(-c4oc5cc(O)cc(O)c5c(=O)c4O)cc3[C@H]2CO)ccc1O [DSC, 3,5,7‐trihydroxy‐2‐[(2R,3S)‐7‐hydroxy‐2‐(4‐hydroxy‐3‐methoxyphenyl)‐3‐(hydroxymethyl)‐2,3‐dihydro‐1‐benzofuran‐5‐yl]chromen‐4‐one] | 4.68 ± 0.01 | – | 90 nM | 0.35 | 290 | 0.07 | – | marked decreases | Kd [1, 9]: 7760 nM; Kd ([1]; fluorescence quenching, read-out: K (binding constant) of polyphenol–XO complex): < 10000 nM; fold stronger inhibitor of xanthine oxidation compared to SC ([2]; based on IC50 values): 50 fold; XO-catalyzed uric acid formation [2]: almost completely abolished; inhibition at 20 µM [2]: 96%; fold stronger inhibition than APU, 6MP assay [3]: ~15 fold; XO-catalyzed 6-thiouric acid formation ([3]; 6MP 5 μmol L^−1): almost completely abolished; inhibition at 20 µM ([3]; inhibitor 20 μmol L^−1, 6MP 5 μmol L^−1, read-out: decrease in 6-thiouric acid formation (inhibition of XO-catalyzed 6MP oxidation)): > 80%; IC50(6MP)/IC50(xanthine) [3]: 3.2; reversibility of the inhibitory action on XO [4]: reversible
6 | O=C(O[C@@H]1Cc2c(O)cc(O)cc2O[C@@H]1c1ccc(O)c(O)c1)c1cc(O)c(O)c(O)c1 [ECG, epicatechin gallate] | – | – | – | – | – | – | – | weak to moderate inhibitors | inhibition at 20 µM [2]: ~50%
7 | Oc1cc(O)c2c(c1)O[C@H](c1cc(O)c(O)c(O)c1)[C@H](O)C2 [EGC, epigallocatechin] | – | – | – | – | – | – | did not cause significant changes | only slight inhibitory action | –
8 | O=C(O[C@@H]1Cc2c(O)cc(O)cc2O[C@@H]1c1cc(O)c(O)c(O)c1)c1cc(O)c(O)c(O)c1 [EGCG, epigallocatechin gallate] | – | – | – | – | – | – | approximately 50% | weak to moderate inhibitors | –
9 | O=C(O)[C@H]1O[C@@H](Oc2cc(O)cc(/C=C/c3ccc(O)cc3)c2)[C@H](O)[C@@H](O)[C@@H]1O [R3G, resveratrol‐3‐glucuronide] | – | – | – | – | – | – | 10% | not significant | peak plasma concentrations [5]: 10 to 20 µmol/L

Second part, led by results:

Row | Log K SV ± SEM (Stern–Volmer quenching constant) [1, 6] | Log K ± SEM (binding constant, modified Stern–Volmer) [1, 7] | IC50 [2] | α = IC50 of flavonoid/IC50 of positive control, xanthine oxidation [2] | IC50 ([3]; 6MP 5 μmol L^−1) [nM] | α = IC50 of flavonoid/IC50 of positive control, 6MP oxidation [3] | decrease in uric acid production (inhibition of XO-catalyzed xanthine oxidation) [2] | decrease in 6-thiouric acid formation (inhibition of XO-catalyzed 6MP oxidation) [3, 8] | Compound | also measured
10 | – | – | – | – | – | – | did not cause significant changes | – | Oc1cc(O)c2c(c1)O[C@H](c1ccc(O)c(O)c1)[C@H](O)C2 [ECT, epicatechin] | –
11 | 4.46 ± 0.01 | – | – | – | – | – | – | weak to moderate inhibitors | COc1cc([C@H]2Oc3ccc([C@H]4Oc5cc(O)cc(O)c5C(=O)[C@@H]4O)cc3O[C@@H]2CO)ccc1O [ISA, isosilybin A] | Kd [1, 9]: 18200 nM; inhibition at 20 µM [2]: 64%; lower decrease in metabolite formation in the 6MP assay than in the xanthine assay ([3]; inhibitor 20 μmol L^−1): ~20%
12 | 4.45 ± 0.04 | – | – | – | – | – | only weak inhibitors | weak to moderate inhibitors | COc1cc([C@H]2Oc3cc([C@H]4Oc5cc(O)cc(O)c5C(=O)[C@@H]4O)ccc3O[C@@H]2CO)ccc1O [SA, silybin A] | Kd [1, 9]: 19500 nM
13 | 4.58 ± 0.03 | 4.99 ± 0.05 | 1400 nM and 1430 nM | 5.50 | 2910 | 0.69 | more than 80% | – | COc1cc([C@H]2Oc3cc([C@H]4Oc5cc(O)cc(O)c5C(=O)[C@@H]4O)ccc3O[C@@H]2CO)ccc1OS(=O)(=O)O [SAS, silybin A‐20‐O‐sulfate] | IC50(6MP)/IC50(xanthine) [3]: 2.0
14 | 4.49 ± 0.01 | – | – | – | – | – | only weak inhibitors | weak to moderate inhibitors | COc1cc([C@@H]2Oc3cc([C@H]4Oc5cc(O)cc(O)c5C(=O)[C@@H]4O)ccc3O[C@H]2CO)ccc1O [SB, (2R,3R)‐3,5,7‐trihydroxy‐2‐[(2S,3S)‐3‐(4‐hydroxy‐3‐methoxyphenyl)‐2‐(hydroxymethyl)‐2,3‐dihydro‐1,4‐benzodioxin‐6‐yl]‐2,3‐dihydrochromen‐4‐one] | Kd [1, 9]: 13500 nM
15 | 4.63 ± 0.01 | 5.05 ± 0.02 | 240 nM | 0.92 | 570 | 0.14 | more than 80% | – | COc1cc([C@@H]2Oc3cc([C@H]4Oc5cc(O)cc(O)c5C(=O)[C@@H]4O)ccc3O[C@H]2CO)ccc1OS(=O)(=O)O [SBS, silybin B‐20‐O‐sulfate] | K (binding constant) of polyphenol–XO complex ([1]; fluorescence quenching): above 10^5 L mol^−1; XO-catalyzed uric acid formation [2]: almost completely abolished; fold stronger inhibition than APU, 6MP assay [3]: ~7 fold; XO-catalyzed 6-thiouric acid formation ([3]; 6MP 5 μmol L^−1): almost completely abolished; IC50(6MP)/IC50(xanthine) [3]: 2.4; reversibility of the inhibitory action on XO [4]: reversible
16 | 4.43 ± 0.01 | 4.81 ± 0.01 | 4500 nM | 17.3 | 10000 | 2.38 | – | – | COc1cc([C@@H]2Oc3c(O)cc([C@H]4Oc5cc(O)cc(O)c5C(=O)[C@@H]4O)cc3[C@H]2CO)ccc1O [SC, silychristin] | IC50(6MP)/IC50(xanthine) [3]: 2.2
17 | 4.49 ± 0.01 | 4.90 ± 0.04 | 680 nM | 2.62 | 2860 | 0.68 | more than 80% | – | isosilybin A‐20‐O‐sulfate [ISAS] | IC50(6MP)/IC50(xanthine) [3]: 4.2
